For 44 compounds, EC50 results are on record in patent US20160137639A1, “TRIAZOLE-ISOXAZOLE COMPOUND AND MEDICAL USE THEREOF” (JAPAN TOBACCO INC., priority 2012, published 2016).

Test [1] has as its target T1, mouse RORγ (Mus musculus, UniProt P51450).
T1 construct: mouse, NM_011281.2 and from Ile251 to Lys516; expressed in transfected cells; host or cells: CHO cells (transient co-transfection with pG5-Luc reporter)
T1 sequence (P51450 251-516): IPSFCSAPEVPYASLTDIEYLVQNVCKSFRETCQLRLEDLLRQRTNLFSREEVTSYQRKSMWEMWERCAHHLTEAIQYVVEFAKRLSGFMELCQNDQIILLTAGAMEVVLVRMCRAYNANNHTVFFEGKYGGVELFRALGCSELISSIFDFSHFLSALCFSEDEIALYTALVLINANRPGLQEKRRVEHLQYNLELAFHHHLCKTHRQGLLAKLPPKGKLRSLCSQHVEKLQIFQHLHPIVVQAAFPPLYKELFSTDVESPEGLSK
Briefly: Luciferase reporter gene assay of inhibitory effect against RORγ transcriptional activity (GAL4-mRORγ plasmid in CHO cells). Particulars: for pEC50: read-out: LUC EC50 mRORg; for EC50: read-out: LUC EC50 (μM) mRORg. It is filed as cell-based. In a few lines:
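CHO cells transiently co-transfected with GAL4-mouse RORγ LBD (Ile251–Lys516) and GAL4-dependent luciferase reporter; eight compound concentrations, 0.1% DMSO, 2 days at 37 °C. Luminescence as %-of-vehicle control; EC50 by curve fit, cytotoxic concentrations excluded.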

Test [2] concerns the target T2, human RORγ (Homo sapiens, UniProt P51449).
T2 construct: human, NM_005060.3 and from Ser253 to Lys518; expressed in transfected cells; host or cells: CHO cells (transient co-transfection with pG5-Luc reporter)
T2 sequence (P51449 253-518): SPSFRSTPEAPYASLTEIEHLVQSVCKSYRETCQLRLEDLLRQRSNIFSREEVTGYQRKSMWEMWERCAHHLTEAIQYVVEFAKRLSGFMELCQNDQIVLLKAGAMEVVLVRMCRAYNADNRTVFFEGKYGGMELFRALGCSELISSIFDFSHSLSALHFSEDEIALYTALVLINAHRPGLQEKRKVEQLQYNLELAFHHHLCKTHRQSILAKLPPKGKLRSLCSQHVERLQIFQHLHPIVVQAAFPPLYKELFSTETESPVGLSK
The test can be described thus: Luciferase reporter gene assay of inhibitory effect against RORγ transcriptional activity (GAL4-hRORγ plasmid in CHO cells). It is filed as cell-based. Particulars: for pEC50: read-out: LUC EC50 hRORg; for EC50: read-out: LUC EC50 (μM) hRORg. (A reporter such as luciferase makes a cellular process visible.)

What is called pEC50 is the negative decadic logarithm of the EC50, by convention in mol/L. The term EC50 denotes the concentration giving half of the maximal effect.

SMILES strings stand for the structures. pEC50: −log10 of the molar value. Read-outs that look alike come from different tables or passages of the source.

As to `CC(=O)N1C[C@H](C(=O)Nc2ccc(C)cc2C)[C@@H](c2nnc(C3CC4(CCC(F)(F)CC4)C3)n2C2CC2)C1` [Example F-620], the pEC50 in test [1] and in test [2] was more than 5.52 each time.

For `Cc1ccc(NC(=O)C[C@H](CC(O)C(F)(F)F)c2nnc([C@H]3C[C@@H](CC(C)C)C3)n2C2CC2)c(C)c1` (single isomer, unassigned) [Example F-622], the pEC50 in test [1] and in test [2] was more than 5.52 each time.

Regarding `CCOC(=O)[C@H]1CC[C@H](CCc2nnc(CCC(=O)Nc3cccc(Cl)c3C)n2C2CC2)CC1` [Example F-240], the EC50 is less than 3 µM in test [1] and more than 3 µM in test [2].

Regarding `Cc1cc(O)ccc1CNC(=O)CCc1nnc(CCC(C)C)n1C1CC1` [Example F-114], the EC50 in test [1] and in test [2] was more than 3 µM throughout.

As to `CC(=O)N1C[C@H](C(=O)Nc2ccc(C)cc2C)[C@@H](c2nnc(CCC3CC3(C)C)n2C2CC2)C1` (single isomer, unassigned) [Example F-328], the EC50 in test [1] and in test [2] was less than 3 µM throughout.

As to `CCC(CC)C[C@H]1C[C@H](c2nnc(CCC(=O)Nc3ccc(C)cc3C)n2C2CC2)C1` [Example F-495], the EC50 in test [1] and in test [2] was less than 3 µM in each case.

For `CC(C)CCc1nnc(CCC(=O)NCc2ccc(C(F)(F)F)cc2)n1C1CC1` [Example F-129], the 50% effective concentration (EC50) in test [1] and in test [2] was more than 3 µM in each case.

For `Cc1c(Cl)cccc1NC(=O)CC(CCN1C(=O)c2ccccc2C1=O)c1nnc(CCCC(C)C)n1C1CC1` (racemic) [Example F-224], the EC50 in test [1] and in test [2] was less than 3 µM throughout.

Consider `CC(C)(C)Cc1cc(-c2noc([C@@H](CCC(=O)O)CC(=O)Nc3ccc(Cl)cc3F)c2C2CC2)no1` [Example E-76], for which the concentration for a half-maximal effect (EC50) in test [1] and in test [2] was less than 3 µM each time.

For the compound `CC(=O)N1C[C@H](C(=O)Nc2ccc(C)cc2C)[C@@H](c2nnc(C3CC3CC(C)C)n2C2CC2)C1` (mixture of isomers) [Example F-341], the EC50 in test [1] and in test [2] was less than 3 µM in each case.

As for `CCn1c(CCC(=O)NCc2cccc3ccccc23)nnc1C1Cc2ccccc2C1` [Example F-18], the EC50 in test [1] and in test [2] was less than 3 µM in each case.

With `Cc1ccc(NC(=O)C[C@H](CCC(=O)O)c2noc([C@H]3C[C@@H](CC(C)(C)C)C3)c2C2CC2)nc1C` [Example F-680], the pEC50 in test [1] and in test [2] was more than 5.52 throughout.

Turning to `CC(=O)N1C[C@H](C(=O)Nc2ccc(C)cc2C)[C@@H](c2nnc(-c3ccc(C(C)C)cc3)n2C2CC2)C1` [Example F-371], the EC50 in test [1] and in test [2] was less than 3 µM in each case.

With `Cc1ccc(NC(=O)C[C@H](CCCO)c2nnc([C@H]3C[C@@H](CC(C)C)C3)n2C2CC2)c(C)c1` [Example F-511], the pEC50 in test [1] and in test [2] was more than 5.52 in each case.

`Cc1ccc(NC(=O)C[C@H](C[C@H](O)CO)c2nnc(CCCC(C)C)n2C2CC2)c(C)c1` [Example F-343]: the 50% effective concentration (EC50) in test [1] and in test [2] was less than 3 µM each time.

As to `Cc1ccc(NC(=O)CC(CC(N)=O)c2nnc(CCCC(C)C)n2C2CC2)c(C)c1` (racemic) [Example F-253], the EC50 in test [1] and in test [2] was more than 3 µM each time.

Take `CCn1c(CCC(=O)Nc2cccc(Cl)c2C)nnc1CCC(C)C` [Example F-52]: the EC50 was less than 3 µM in test [1] and more than 3 µM in test [2].

For the compound `CCn1c(CCC2CCCCC2)nnc1[C@H]1C[C@@H]1C(=O)Nc1cccc2ccccc12` (racemic) [Example F-36], the EC50 in test [1] and in test [2] was more than 3 µM throughout.

Consider `Cc1ccc(NC(=O)CC(CCN2C(=O)c3ccccc3C2=O)c2nnc(CCCC(C)C)n2C2CC2)c(C)c1` (racemic) [Example F-272], for which the concentration for a half-maximal effect (EC50) in test [1] and in test [2] was less than 3 µM throughout.

`Cc1ccc(NC(=O)C(C)C(CCO)c2nnc([C@H]3C[C@@H](CC(C)C)C3)n2C2CC2)c(C)c1` (single isomer, unassigned) [Example F-491]: the EC50 in test [1] is less than 3 µM; in test [2], more than 3 µM.

`CN[C@@H](CC(=O)Nc1ccc(C)cc1C)c1nnc(CCCC(C)(C)C)n1C1CC1` [Example F-353]: the EC50 in test [1] and in test [2] was less than 3 µM throughout.

Regarding `CC(=O)N1C[C@@H](C(=O)Nc2ccc(C)cc2C)[C@H](c2nnc(-c3ccc(C(C)C)cc3)n2C2CC2)C1` [Example F-372], the half-maximal effective concentration (EC50) in test [1] and in test [2] was more than 3 µM each time.

As to `Cc1ccc(NC(=O)CCc2nnc(CCC(C)C)n2C2CC2)cc1C` [Example F-74], the EC50 in test [1] and in test [2] was more than 3 µM throughout.

Turning to `CC(=O)N1C[C@@H](C(=O)Nc2ccc(C)cc2C)[C@H](c2nnc(CCC3CCCCC3)n2C2CC2)C1` [Example F-375], the EC50 in test [1] and in test [2] was more than 3 µM each time.

Consider `Cc1c(Cl)cccc1NC(=O)CCc1nnc(COC2CCCCC2)n1C1CC1` [Example F-144], for which the EC50 in test [1] and in test [2] was less than 3 µM each time.

On to `Cc1ccc(NC(=O)[C@H]2CN(S(C)(=O)=O)C[C@@H]2c2nnc(CCCC(C)(C)C)n2C2CC2)c(C)c1` (racemic) [Example F-397], for which the EC50 in test [1] and in test [2] was less than 3 µM throughout.

As to `COC1C[C@@H](C(=O)Nc2ccc(C)cc2C)[C@H](c2nnc([C@H]3C[C@@H](CC(C)C)C3)n2C2CC2)C1` (single isomer, unassigned) [Example F-555], the pEC50 in test [1] and in test [2] was less than 5.52 each time.

On to `COc1ccc(F)cc1CNC(=O)CCc1nnc(CCC(C)C)n1C1CC1` [Example F-208], for which the EC50 in test [1] and in test [2] was more than 3 µM in each case.

In the case of `Cc1ccc(NC(=O)C[C@H](CCC(=O)O)c2noc(-c3cc(CC(C)C)nn3C)c2C2CC2)c(Cl)c1` [Example E-25], the values for the EC50 in test [1] and in test [2] were less than 3 µM and more than 3 µM, respectively.

Consider `Cc1ccc(NC(=O)CC(CN2C(=O)N(C)C(C)(C)C2=O)c2nnc(CCCC(C)(C)C)n2C2CC2)c(C)c1` (racemic) [Example F-508], for which the pEC50 in test [1] and in test [2] was less than 5.52 each time.

With `Cc1c(NC(=O)CCc2nnc(CCC(C)C)n2C2CC2)ccc(Cl)c1Cl` [Example F-165], the EC50 was less than 3 µM in test [1] and more than 3 µM in test [2].

As for `CC(=O)N1CC[C@H](C(=O)Nc2ccc(C)cc2C)[C@H]1c1nnc(CCC2CCCCC2)n1C1CC1` [Example F-227], the EC50 in test [1] and in test [2] was less than 3 µM throughout.

For the compound `Cc1ccc(NC(=O)[C@H]2CN(C(=O)N(C)C)C[C@@H]2c2nnc(CCCC(C)(C)C)n2C2CC2)c(C)c1` (racemic) [Example F-447], the EC50 in test [1] and in test [2] was less than 3 µM throughout.

On to `Cc1c(CO)cccc1NC(=O)CCc1nnc(CCC(C)C)n1C1CC1` [Example F-87], for which the EC50 in test [1] and in test [2] was more than 3 µM throughout.

For `CC(=O)N1C[C@H](C(=O)Nc2ccc(C)cc2C)[C@@H](c2nnc(CCCC(C)(C)C)n2C2CC2)C1` [Example F-338], the half-maximal effective concentration (EC50) in test [1] and in test [2] was less than 3 µM in each case.

As for `Cc1ccc(NC(=O)C[C@H](CC(C)C)c2nnc(-c3cc(CCC(C)C)on3)n2C2CC2)c(C)c1` [Example F-627], the negative-log EC50 (pEC50) in test [1] and in test [2] was more than 5.52 in each case.

In the case of `CC(=O)N1C[C@H](C(=O)Nc2ccc(C)cc2C)[C@@H](c2nnc(C3CN(C(=O)OC(C)(C)C)C3)n2C2CC2)C1` (racemic) [Example F-416], the EC50 in test [1] and in test [2] was more than 3 µM in each case.

As for `Cc1cc(F)ccc1NC(=O)[C@H]1CC(F)(F)C[C@@H]1c1nnc(-c2cc(CC(C)C)on2)n1C1CC1` [Example F-592], the pEC50 in test [1] and in test [2] was more than 5.52 each time.

Take `CC(C)(C)C[C@H]1C[C@@H](c2onc([C@@H](CCC(=O)O)CC(=O)NS(=O)(=O)C3CC3)c2C2CC2)C1` [Example F-722]: the pEC50 in test [1] and in test [2] was less than 5.52 throughout.

As to `Cc1cc(CO)ccc1NC(=O)CCc1nnc(CCC(C)C)n1C1CC1` [Example F-88], the EC50 in test [1] and in test [2] was more than 3 µM in each case.

On to `CC1(C(F)(F)c2cc(-c3onc([C@@H](CCC(=O)O)CC(=O)Nc4ccc(Cl)cc4F)c3C3CC3)no2)CC1` [Example E-67], for which the EC50 in test [1] and in test [2] was less than 3 µM in each case.

For the compound `COC1CCC(CCc2nnc(CCC(=O)Nc3cccc(Cl)c3C)n2C2CC2)CC1` (stereo not shown) [Example F-242], the values for the EC50 in test [1] and in test [2] were less than 3 µM and more than 3 µM, respectively.

In the case of `Cc1ccc(NC(=O)[C@H]2CCCN(C(=O)CO)[C@@H]2c2nnc(CCCC(C)(C)C)n2C2CC2)c(C)c1` [Example F-308], the EC50 in test [1] and in test [2] was less than 3 µM each time.

Take `Cc1ccc(NC(=O)C[C@H](CCO)c2nnc(-c3cc(CC(C)C)on3)n2C2CC2)c(C)c1` [Example F-659]: the pEC50 in test [1] and in test [2] was more than 5.52 throughout.
